Consider three compounds from patent US5352680A, “Delta opioid receptor antagonists to block opioid agonist tolerance and dependence” (priority 1992, dated 1994).

Where two headings read alike, the source gives them in different places.

Data set [1] deals with development of physical dependence in mice treated chronically with morphine. The experiment in a line: Naloxone-induced withdrawal jumping: physical dependence, mice treated chronically with morphine. It counts as in vivo, mice (male Swiss-Webster). The note with it: with morphine pellet. Here is the method: (§1) Male Swiss-Webster mice (BioLab, White Bear Lake, Minn.) weighing 20 to 25 g were used. The mice were rendered tolerant to and dependent on morphine by s.c. implantation of one morphine pellet (75 mg free base)/mouse for 3 days according to the procedure of E. L. Way et al., J. Pharmacol. Exp. Ther., 167, 1 (1969). Control animals were implanted with placebo pellets. Mice were anesthetized lightly with methoxyflurane during the implantation process. […] Chem. Pathol. Pharmacol., 16, 721 (1977).
(§2) Mice were implanted with a single placebo (control) or morphine pellet (75 mg free base) for 3 days. NTI (10 pmol/mouse) was administered i.c.v. 90 min before and 24 and 48 hr after the morphine pellet implantation. 5'-NTII (10 nmol/mouse) was administered 24 hr before, at the same time as and 24 and 48 hr after the morphine pellet implantation.

For data set [2], the system named is kappa opioid receptor. The experiment in a line: Antagonism of kappa opioid receptor agonists. It counts as in vivo. The note with it: 10 nmol/mouse i.c.v., 24 hours.
Data set [3] deals with development of morphine tolerance in mice treated chronically with morphine. It is filed as in vivo, mice (male Swiss-Webster). The note with it: for increase of the ED50 of morphine sulfate vs control animals: antagonist together with morphine pellets; for effect on development of tolerance: with morphine pellets. On the procedure:
as §1
At least 30 mice (10/group) and three to four dose levels were used to determine each ED50 value.
The ED50 values of morphine and their 95% CL were determined by the parallel line assay of D. J. Finney, Statistical Methods in Biological Assay, Hafner Pub. Co., N.Y. (2d ed. 1969) with the aid of a computer program which has the capability to analyze at the same time 12 lines (dose-response curves) and 6 points (dose levels) per line with log and probit transformations and 35 repetitions per point.
as §2

Data set [4] deals with T1, delta opioid receptors (Mus musculus, UniProt P32300).
T1 construct: from tissue; host or cells: living mouse, intracerebroventricular dosing (endogenous receptor)
Kind of data set: Antagonism of delta opioid receptor agonists (DSLET) in vivo. Details: species or system mice.

Data set [5] concerns mu opioid receptor. The note with it: shown previously; cited from earlier work.
In data set [6] the target is T1, delta opioid receptors. The note with it: previously reported; cited from earlier work.
Data set [7] has as its system kappa opioid receptor. The note with it: shown previously; cited from earlier work.
The test system of data set [8] is delta opioid receptors. The note with it: shown previously; cited from earlier work.
The subject of data set [9] is mu opioid receptor. Kind of data set: Antagonism of mu opioid receptor agonists. It is filed as in vivo. The note with it: 10 nmol/mouse i.c.v., 24 hours. On the procedure:
(§3) NTI (10 pmol/mouse) was administered 100 min before the i.c.v. injection of DAMGO and 20 min later, at the peak effect of DAMGO, the antinociceptive activity of the peptide was assessed. In another group of mice, NTI (10 pmol/mouse) was administered twice, once at 100 min before and again at the same time as the i.c.v. injection of DAMGO. 5'-NTII (10 nmol/mouse) was administered 24 hr before being tested with DAMGO.

The subject of a further data set is mu opioid receptors. Kind of data set: Effect on antinociceptive activity of the mu agonist DAMGO. It counts as in vivo, mice (male Swiss-Webster). The note with it: NTI 10 pmol/mouse, once or twice; 5'-NTII 10 nmol/mouse 24 hr before DAMGO. On the procedure:
as §3

The subject of a further data set is antinociceptive activity. The experiment in a line: Antinociceptive activity of the antagonist itself. It counts as in vivo, mice. The note with it: for antinociceptive activity: mouse, in vivo.
Data set [10] concerns mu opioid receptor. The note with it: rats; cited from earlier work.
Data set [11] has as its system mu opioid receptor. The note with it: monkeys; cited from earlier work.
Data set [12] has as its system mu opioid receptor. The note with it: dose used by DeLander et al.; cited from earlier work.
The test system of data set [13] is development of physical dependence in mice treated acutely with morphine. It counts as in vivo, mice (male Swiss-Webster).
The subject of the next data set is delta opioid receptor. Kind of data set: Delta antagonist potency/selectivity comparison (one assay).
The test system of data set [14] is development of morphine tolerance in mice treated acutely with morphine. It is filed as in vivo, mice (male Swiss-Webster). The note with it: NTI 10 pmol/mouse i.c.v.; morphine sulfate 100 mg/kg s.c.

T1 sequence (P32300 whole entry): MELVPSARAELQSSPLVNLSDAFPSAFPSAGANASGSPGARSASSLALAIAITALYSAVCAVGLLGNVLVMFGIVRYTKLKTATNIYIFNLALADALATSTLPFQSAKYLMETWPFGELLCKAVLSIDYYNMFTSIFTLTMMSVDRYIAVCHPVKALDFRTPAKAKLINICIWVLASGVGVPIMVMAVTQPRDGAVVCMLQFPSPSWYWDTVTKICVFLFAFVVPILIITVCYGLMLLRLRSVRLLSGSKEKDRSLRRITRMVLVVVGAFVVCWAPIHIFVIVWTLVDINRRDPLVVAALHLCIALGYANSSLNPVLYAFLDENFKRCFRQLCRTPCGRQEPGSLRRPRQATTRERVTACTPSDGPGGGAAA

`Oc1ccc2c3c1O[C@H]1c4[nH]c5ccc(N=C=S)cc5c4C[C@@]4(O)[C@@H](C2)N(CC2CC2)CC[C@]314` [5'-NTII, naltrindole 5'-isothiocyanate]: the “effect on development of physical dependence” value in data set [1] is “appeared to block it completely”. In the data set on kappa opioid receptor [2], the “effect on ED50s of kappa opioid receptor agonists” value is on record as “without affecting the ED50 s of mu or kappa opioid receptor agonists”. In data set [3], the “increase of the ED50 of morphine sulfate vs control animals” value came to 3 fold and the “effect on development of tolerance” value was “the development of tolerance was suppressed substantially”. For the same compound, the “selectivity for delta opioid receptors” value at delta opioid receptors [4] (10 nmol/mouse i.c.v.) was “high selectivity for delta opioid receptors”. Moreover, the “increase of ED50 of DSLET” value at delta opioid receptors [4] (24 hours after 10 nmol/mouse i.c.v.) is listed as 50 fold. Moreover, the “effect on activity of mu opioid receptor agonists” value with mu opioid receptor [5] was “minimal or no effect”. For the same compound, the “duration of action against delta agonists” value on delta opioid receptors [6] is on record as “more than 48 hr”. Also, in the data set with kappa opioid receptor [7], the “effect on activity of kappa opioid receptor agonists” value is “minimal or no effect”. Further, the “antagonism of delta opioid receptor agonists” value with delta opioid receptors [8] was “highly effective antagonists against the activity of delta opioid receptor agonists”. Further, the “effect on ED50s of mu opioid receptor agonists” value in the data set on mu opioid receptor [9] was “without affecting the ED50 s of mu or kappa opioid receptor agonists”. Further, in the data set with mu opioid receptors, the “effect on the antinociceptive activity of DAMGO” value was “neither NTI nor 5'-NTII, at the dosages and injection protocol used, altered the anti-nociceptive activity of DAMGO”. The antinociceptive activity result with antinociceptive activity is listed as “without any antinociceptive activity”.

As for `COC(=O)/C=C/C(=O)N[C@@H]1CC[C@@]2(O)[C@H]3Cc4ccc(O)c5c4[C@@]2(CCN3CC2CC2)[C@H]1O5` [β-FNA, β-funaltrexamine], in the data set on mu opioid receptor [10], the “effect on development of morphine tolerance and dependence” value is “inhibit the development of morphine tolerance and dependence in rats”. Moreover, in the data set with mu opioid receptor [11], the withdrawal signs entry is “induce long-lasting withdrawal signs in monkeys”. Moreover, in the data set with mu opioid receptor [12], the “effect on morphine-induced antinociception” value was “significantly inhibited morphine-induced antinociception”.

On to `Oc1ccc2c3c1O[C@H]1c4[nH]c5ccccc5c4C[C@@]4(O)[C@@H](C2)N(CC2CC2)CC[C@]314` [NTI, 17-(cyclopropylmethyl)-6,7-dehydro-3,14β-dihydroxy-4,5α-epoxy-6,7-2',3'-indolmorphinan], for which the “effect on development of physical dependence” value in data set [1] was “suppressed the development of dependence substantially”. Further, the “times more naloxone required to precipitate withdrawal jumping” value is reported as 45 times in data set [13] (pretreated twice with NTI before inducing dependence) and “about 10 times” in [13] (single dose of NTI 90 min before or at same time as 100 mg/kg morphine sulfate). The “potency relative to ICI 174864” value with delta opioid receptor (vs peptide delta antagonist ICI 174864) is recorded as “at least 500 times”. The “selectivity relative to M8008” value in the data set with delta opioid receptor (vs structurally unrelated opiate M8008) was “more selective than the structurally unrelated opiate M8008”. For the same compound, in [3], the “increase of the ED50 of morphine sulfate vs control animals” value was 2 fold. In addition, in data set [3], the “effect on development of tolerance” value was “the development of tolerance was suppressed substantially”. Besides, the “duration of antagonist activity against delta opioid receptor agonists” value at delta opioid receptors [4] (NTI, b221: against the antinociceptive effect of DSLET) is 18 to 24 h. For the same compound, the “effect on activity of mu opioid receptor agonists” value with mu opioid receptor [5] is “minimal or no effect”. Besides, the “effect on activity of kappa opioid receptor agonists” value in the data set on kappa opioid receptor [7] is reported as “minimal or no effect”. Further, the “antagonism of delta opioid receptor agonists” value with delta opioid receptors [8] was “highly effective antagonists against the activity of delta opioid receptor agonists”. In [14], the “effect on development of acute tolerance” value is on record as “completely prevented the development of acute tolerance”. Moreover, the “effect on the antinociceptive activity of DAMGO” value in the data set with mu opioid receptors was “neither NTI nor 5'-NTII, at the dosages and injection protocol used, altered the anti-nociceptive activity of DAMGO”. For the same compound, the “maximum dose with selective antagonism at delta opioid receptors without detection of antinociceptive activity” value with antinociceptive activity (i.c.v.) was 10 pmol/mouse. Further, in the data set with antinociceptive activity, the antinociceptive activity result was “possesses antinociceptive activity”.
